Values of other authors in patent publication US8716300B2, “Frequency modulated drug delivery (FMDD)” (Synthonics, Inc., priority 2008, dated 2014).

Key:
reserpinized rats = settings: remacemide 5 mg/kg administered with lowest effective dose of levodopa (75 mg/kg)
MES induced seizures = settings: combined treatment of dizocilpine with valproate

Q: For CC(Cc1ccccc1)(NC(=O)CN)c1ccccc1 (stereo not drawn) [remacemide], which “increase in horizontal motor activity over levodopa given alone” value (reserpinized rats) is on record?
A: 9 fold

Q: Which “protection against MES induced seizures” value (MES induced seizures) does the source give for C[C@]12N[C@H](Cc3ccccc31)c1ccccc12 [dizocilpine] here?
A: 50%

Q: And the “reduction in the ED50 of valproate” value (MES induced seizures; MES induced seizures)?
A: ~3 fold
